According to PubChem BioAssay AID256 (DTP/NCI, 2004):
Inconclusive results and toxic doses are left out. How the source made its calls: active means survival T/C of 150% or more; inactive means T/C below 125% in these data.

Tested on: CD2F1 mice, L1210 leukemia ip, survival T/C
Assay: NCI In Vivo Anticancer Drug Screen. Data for tumor model L1210 Leukemia (intraperitoneal) in CD2F1 (CDF1) mice
Settings: higher = longer survival
How it was run: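 Antitumor effect is scored in animals hosting a serially transplanted tumor. Values compare compound-dosed animals against vehicle-only controls as a simple quotient.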

[1] = endpoint: mean survival time, dose: 100.0 mg/kg/injection, schedule: Q04DX003 (ip), vehicle: saline with Tween-80
[2] = endpoint: mean survival time, dose: 200.0 mg/kg/injection, schedule: Q04DX003 (ip), vehicle: saline with Tween-80
[3] = endpoint: mean survival time, dose: 400.0 mg/kg/injection, schedule: Q04DX003 (ip), vehicle: saline with Tween-80
[4] = endpoint: mean survival time, dose: 100.0 mg/kg/injection, schedule: Q04DX002 (ip), vehicle: saline with Tween-80
[5] = endpoint: mean survival time, dose: 200.0 mg/kg/injection, schedule: Q04DX002 (ip), vehicle: saline with Tween-80
[6] = endpoint: mean survival time, dose: 400.0 mg/kg/injection, schedule: Q04DX002 (ip), vehicle: saline with Tween-80
[7] = endpoint: mean survival time, dose: 100.0 mg/kg/injection, schedule: Q01DX009 (ip), vehicle: saline with Tween-80
[8] = endpoint: mean survival time, dose: 200.0 mg/kg/injection, schedule: Q01DX009 (ip), vehicle: saline with Tween-80
[9] = endpoint: mean survival time, dose: 400.0 mg/kg/injection, schedule: Q01DX009 (ip), vehicle: saline with Tween-80
[10] = endpoint: mean survival time, dose: 100.0 mg/kg/injection, schedule: Q01DX001 (ip), vehicle: saline
[11] = endpoint: mean survival time, dose: 200.0 mg/kg/injection, schedule: Q01DX001 (ip), vehicle: saline
[12] = endpoint: mean survival time, dose: 400.0 mg/kg/injection, schedule: Q01DX001 (ip), vehicle: saline
[13] = endpoint: mean survival time, dose: 50.0 mg/kg/injection, schedule: Q01DX009 (ip), vehicle: saline with Tween-80
[14] = endpoint: mean survival time, dose: 100.0 mg/kg/injection, schedule: Q01DX001 (ip), vehicle: saline with Tween-80
[15] = endpoint: mean survival time, dose: 200.0 mg/kg/injection, schedule: Q01DX001 (ip), vehicle: saline with Tween-80
[16] = endpoint: mean survival time, dose: 400.0 mg/kg/injection, schedule: Q01DX001 (ip), vehicle: saline with Tween-80

Measured: T/C

CC(C)(C)c1ccc(S(=O)(=O)CC(=O)O)cc1
inactive: endpoint: mean survival time, dose: 75.0 mg/kg/injection, schedule: Q01DX001 (ip), vehicle: other 104 % of control | [1] 104 % of control | endpoint: mean survival time, dose: 150.0 mg/kg/injection, schedule: Q01DX001 (ip), vehicle: other 100 % of control | [2] 102 % of control | endpoint: mean survival time, dose: 300.0 mg/kg/injection, schedule: Q01DX001 (ip), vehicle: other 98 % of control | [3] 104 % of control

COC(=O)C#CC(N)=O
inactive: endpoint: mean survival time, dose: 1.25 mg/kg/injection, schedule: Q01DX009 (ip), vehicle: saline sonified 106 % of control | endpoint: mean survival time, dose: 2.5 mg/kg/injection, schedule: Q01DX009 (ip), vehicle: saline sonified 109 % of control | endpoint: mean survival time, dose: 5.0 mg/kg/injection, schedule: Q01DX009 (ip), vehicle: saline sonified 113 % of control | endpoint: mean survival time, dose: 5.0 mg/kg/injection, schedule: Q04DX003 (ip), vehicle: saline sonified 110 % of control

c1cc2c3c(c4sc5ccccc5c4cc3c1)CC2
inactive: endpoint: mean survival time, dose: 12.5 mg/kg/injection, schedule: Q04DX003 (ip), vehicle: other 101 % of control | endpoint: mean survival time, dose: 25.0 mg/kg/injection, schedule: Q04DX003 (ip), vehicle: other 115 % of control | endpoint: mean survival time, dose: 50.0 mg/kg/injection, schedule: Q04DX003 (ip), vehicle: other 108 % of control | endpoint: mean survival time, dose: 100.0 mg/kg/injection, schedule: Q04DX003 (ip), vehicle: other 115 % of control | endpoint: mean survival time, dose: 200.0 mg/kg/injection, schedule: Q04DX003 (ip), vehicle: other 108 % of control

CCCOC(=O)Nc1ccccn1
inactive: [4] 108 % of control | [5] 108 % of control | [6] 97 % of control

N#CCCC1C(=O)CCCC1=O
inactive: [1] 105 % of control | [2] 89 % of control | [3] 97 % of control

COC1C(O)C(O)C(O)C(O)C1O (configuration not stated)
inactive: endpoint: mean survival time, dose: 100.0 mg/kg/injection, schedule: Q04DX003 (ip), vehicle: saline 95 % of control | endpoint: mean survival time, dose: 200.0 mg/kg/injection, schedule: Q04DX003 (ip), vehicle: saline 92 % of control | endpoint: mean survival time, dose: 400.0 mg/kg/injection, schedule: Q04DX003 (ip), vehicle: saline 93 % of control

S=C(Sc1ccccc1)Sc1ccccc1
inactive: [7] 88 % of control | [1] 92 % of control | [8] 95 % of control | [2] 103 % of control | [9] 91 % of control | [3] 104 % of control

CC(=O)CCCN(CCO)CCO
inactive: [10] 103 % of control | [11] 93 % of control | [12] 101 % of control

CCCCC(NC(=O)CN)C(=O)O (configuration not stated)
inactive: endpoint: mean survival time, dose: 75.0 mg/kg/injection, schedule: Q04DX002 (ip), vehicle: saline with Tween-80 111 % of control | endpoint: mean survival time, dose: 150.0 mg/kg/injection, schedule: Q04DX002 (ip), vehicle: saline with Tween-80 91 % of control | endpoint: mean survival time, dose: 300.0 mg/kg/injection, schedule: Q04DX002 (ip), vehicle: saline with Tween-80 106 % of control

COc1cc([N+](=O)[O-])ccc1NC(=O)Nc1ccc(Cl)cc1
inactive: [7] 89 % of control | [1] 91 % of control | [8] 87 % of control | [3] 107 % of control

CC(Cl)CN(CC(C)Cl)c1ccc(S(=O)(=O)Nc2ncccn2)cc1 (configuration not stated)
inactive: endpoint: mean survival time, dose: 35.0 mg/kg/injection, schedule: Q01DX009 (ip), vehicle: other 114 % of control

O=C1N[C@H]2[C@H](O)[C@H](O)[C@@H](O)[C@H](O)[C@@H]2c2cc3c(c(O)c21)OCO3
inactive: endpoint: median survival time, dose: 0.38 mg/kg/injection, schedule: Q01DX009 (ip), vehicle: saline + alcohol 120 % of control | endpoint: median survival time, dose: 0.75 mg/kg/injection, schedule: Q01DX009 (ip), vehicle: saline + alcohol 122 % of control | endpoint: median survival time, dose: 1.5 mg/kg/injection, schedule: Q01DX009 (ip), vehicle: saline + alcohol 121 % of control

C=C(C)C1(Cc2ccccc2)C(=O)NC(=O)NC1=O
inactive: endpoint: mean survival time, dose: 5.0 mg/kg/injection, schedule: Q01DX001 (ip), vehicle: saline 100 % of control | endpoint: mean survival time, dose: 10.0 mg/kg/injection, schedule: Q01DX001 (ip), vehicle: saline 97 % of control | endpoint: mean survival time, dose: 20.0 mg/kg/injection, schedule: Q01DX001 (ip), vehicle: saline 100 % of control | endpoint: mean survival time, dose: 40.0 mg/kg/injection, schedule: Q01DX001 (ip), vehicle: saline 102 % of control

COc1c(C)c2c(c(OC(C)=O)c1CC(=O)O)C(=O)OC2
inactive: [4] 108 % of control | [5] 100 % of control | [6] 100 % of control

NCC(F)(F)C(F)(F)C(F)(F)CN
inactive: [13] 98 % of control | [7] 107 % of control | [8] 103 % of control

C=CCNC(=S)NCCCCCCCCCCCCCCCCCC
inactive: endpoint: mean survival time, dose: 12.5 mg/kg/injection, schedule: Q01DX009 (ip), vehicle: saline with Tween-80 98 % of control | endpoint: mean survival time, dose: 25.0 mg/kg/injection, schedule: Q01DX009 (ip), vehicle: saline with Tween-80 98 % of control | [13] 104 % of control

c1c(NC2=NCCO2)cc2c3c1CCCN3CCC2
inactive: [1] 92 % of control | [2] 97 % of control

COCc1nnc(N)c(C(N)=O)n1
inactive: endpoint: mean survival time, dose: 100.0 mg/kg/injection, schedule: Q01DX001 (ip), vehicle: carboxymethylcellulose (CMC) 100 % of control | endpoint: mean survival time, dose: 200.0 mg/kg/injection, schedule: Q01DX001 (ip), vehicle: carboxymethylcellulose (CMC) 100 % of control | endpoint: mean survival time, dose: 400.0 mg/kg/injection, schedule: Q01DX001 (ip), vehicle: carboxymethylcellulose (CMC) 89 % of control

CC(=O)OCC(OC(C)=O)C1OC(OCc2ccccc2)C(OC(C)=O)C(OC(C)=O)C1OC(C)=O (configuration not stated)
inactive: [14] 95 % of control | [15] 86 % of control | [16] 88 % of control

CON=C(/C=C\c1ccccc1)/C=C/c1ccccc1
inactive: [14] 102 % of control | [7] 103 % of control | [15] 98 % of control | [8] 101 % of control | [16] 93 % of control | [9] 97 % of control

O=C(CBr)c1cc(-c2ccccc2)nc2c(Cl)cc(Cl)cc12
inactive: [10] 100 % of control | [11] 103 % of control | [12] 97 % of control

CCC1(O)CC2CN(CCc3c([nH]c4ccccc34)C(C(=O)OC)(c3cc4c(cc3OC)N(C)C3C(O)(C(=O)NCCSSCCNC(=O)C5(O)C(O)C6(CC)C=CCN7CCC8(c9cc(C%10(C(=O)OC)CC%11CN(CCc%12c%10[nH]c%10ccccc%12%10)CC(O)(CC)C%11)c(OC)cc9N(C)C58)C76)C(O)C5(CC)C=CCN6CCC43C65)C2)C1 (configuration not stated)
inactive: endpoint: median survival time, dose: 1.08 mg/kg/injection, schedule: Q01DX009 (ip), vehicle: suspension in saline 111 % of control

O=Cc1c2c(cc3ccccc13)Nc1ccccc1N2
inactive: endpoint: mean survival time, dose: 100.0 mg/kg/injection, schedule: Q04DX002 (ip), vehicle: saline + alcohol 89 % of control | endpoint: mean survival time, dose: 200.0 mg/kg/injection, schedule: Q04DX002 (ip), vehicle: saline + alcohol 89 % of control | endpoint: mean survival time, dose: 400.0 mg/kg/injection, schedule: Q04DX002 (ip), vehicle: saline + alcohol 86 % of control

c1ccc([P+](c2ccccc2)(c2ccccc2)C2OCCO2)cc1
inactive: [14] 112 % of control

NC1=NC(=O)CC(=O)N1
inactive: [14] 102 % of control | [15] 103 % of control

O=C1CC2CCCCN2C2=C1CCCC2 (configuration not stated)
inactive: endpoint: mean survival time, dose: 100.0 mg/kg/injection, schedule: Q04DX003 (ip), vehicle: acetone 97 % of control

COc1ccc2oc3c(ccc[n+]3C)c(=O)c2c1
inactive: endpoint: median survival time, dose: 60.0 mg/kg/injection, schedule: Q01DX005 (ip), vehicle: saline with Tween-80 104 % of control | endpoint: median survival time, dose: 120.0 mg/kg/injection, schedule: Q01DX005 (ip), vehicle: saline with Tween-80 108 % of control | endpoint: median survival time, dose: 240.0 mg/kg/injection, schedule: Q01DX005 (ip), vehicle: saline with Tween-80 122 % of control

CC[N+](CC)(CC)Cc1ccccc1
inactive: endpoint: mean survival time, dose: 10.0 mg/kg/injection, schedule: Q04DX003 (ip), vehicle: saline with Tween-80 105 % of control | endpoint: mean survival time, dose: 20.0 mg/kg/injection, schedule: Q04DX003 (ip), vehicle: saline with Tween-80 94 % of control | endpoint: mean survival time, dose: 40.0 mg/kg/injection, schedule: Q04DX003 (ip), vehicle: saline with Tween-80 98 % of control

CN(C)/C=C(\C#N)C=O
inactive: endpoint: mean survival time, dose: 18.75 mg/kg/injection, schedule: Q01DX009 (ip), vehicle: saline with Tween-80 95 % of control | endpoint: mean survival time, dose: 37.5 mg/kg/injection, schedule: Q01DX009 (ip), vehicle: saline with Tween-80 101 % of control | endpoint: mean survival time, dose: 75.0 mg/kg/injection, schedule: Q01DX009 (ip), vehicle: saline with Tween-80 101 % of control | endpoint: mean survival time, dose: 75.0 mg/kg/injection, schedule: Q04DX003 (ip), vehicle: saline with Tween-80 87 % of control

CC(C)C1(C(C)C)OCCO1
inactive: [13] 98 % of control | [7] 93 % of control | [1] 97 % of control | [8] 95 % of control | [2] 88 % of control
